Measured values from patent publication US20260130919A1 (priority 2023, published 2026).

Key:
[1] = cumulative dose of doxorubicin >200 mg/m^2, CHOP regimen, aggressive Non-Hodgkin Lymphoma patients; cited from earlier work
[2] = test system: PTCL; settings: anthracycline-based regimens; cited from earlier work
[3] = test system: peripheral T-cell lymphoma (PTCL); test: Randomized Phase 2 dose finding study of Pralatrexate-COP versus CHOP; set-up: species or system human; settings: in vivo, iv
Description: This experiment was performed to identify the suitable dose of Pralatrexate that would be optimal in polychemotherapy for the next study (phase-III) based on safety and ORR (objective response rate) at 3 months. Initially, a lower dose of 20 mg/m^2 was compared to 30 mg/m^2 combined with COP. Therefore, these two dose levels were assigned randomly to 20 patients in addition to COP (Pralatrexate-COP). […] Dose effect on polyglutamate-Pralatrexate, DNA hypomethylation or H3-acetylation was evaluated in this part of the study as a surrogate for PD (pharmacodynamics) drug exposure. […] Further objective of dose finding study was also to evaluate the safety profiles for patients with newly diagnosed PTCL treated with Pralatrexate-COP compared to CHOP alone.
In the dose finding study, each investigational arm was having two dose levels which was compared with CHOP as reference. Treatment was randomized in three arms, Group 1a (Pralatrexate-COP) Pralatrexate 20 mg/m^2, Group 1b Pralatrexate 30 mg/m^2, all added to standard CHOP or COP respectively, and Group 2 for CHOP alone. […]

SMILES | patients with cardiac events [1] | survival impact of inclusion in a polychemotherapy regimen [2] | effect in combination with COP [3]
COc1cccc2c1C(=O)c1c(O)c3c(c(O)c1C2=O)C[C@@](O)(C(=O)CO)C[C@@H]3O[C@H]1C[C@H](N)[C@H](O)[C@H](C)O1 [Doxorubicin] | 27% | not associated with a survival improvement | –
C#CCC(Cc1cnc2nc(N)nc(N)c2n1)c1ccc(C(=O)N[C@@H](CCC(=O)O)C(=O)O)cc1 (mixture of isomers) [Pralatrexate] | – | – | synergistic effect
